Data reported in US8399438B2, “2α-methyl-19-nor-1α-hydroxy-homopregnacalciferol and its uses” (Wisconsin Alumni Research Foundation, priority 2004, dated 2013).
pEC50, pKi: −log10 of the molar value.

Tests used:
Sprague-Dawley rats [1] = test: PTH suppression (bioactive serum PTH, ELISA); format: in vivo, rat
Procedure: Adult, female Sprague-Dawley rats were obtained from Harlan (Madison, Wis.). Upon receipt, the animals were identified by individual tail marks. Animals were housed in suspended, stainless steel, wire-bottom cages. Each cage contained one animal. The animal rooms were maintained at a temperature of 68 to 72° F. and a relative humidity of 25 to 75%. The holding rooms were set to provide 12 hours of light per day. Water and a purified rodent diet (Suda et al., Purified Rodent Diet-Diet 11) containing […] 0.3% phosphorus and fat soluble vitamins A, D, E and K were provided ad libitum. Treatment Groups Animals were randomly assigned to treatment groups (5 animals/group). All doses were administered intraperitoneally in 100 microliters of propylene glycol. Four to seven consecutive doses were given approximately 24 hours apart. Dosing was initiated after the animals had been allowed to acclimate for at least one week. Dose Preparation Control Material Negative Control Material […] The solution was mixed and then stored at 2 to 8° C. The analogs were prepared by first determining the concentration of an ethanol stock solution using UV spectrophotometry (extinction coefficient=42,000; λmax=252 nm). The analog solutions were then volumetrically added to propylene glycol so that there was less than 5% ethanol in the final solution. The solution was mixed and stored at 2 to 8° C. […] Serum PTH Levels. Twenty-four hours after the final dose, blood was collected from the tail artery and the concentration of bioactive serum PTH was measured using the rat BioActive Intact PTH ELISA Kit from Immutopics, Inc. (San Clemente, Calif.). Serum Calcium Analysis Twenty-four hours after the final dose, approximately 1 ml of blood was collected from the tail artery of each experimental animal. The blood was allowed to coagulate at room temperature and then centrifuged at 3000×g for 15 minutes. The serum was transferred to a polypropylene tube and stored frozen at −20° C. The level of calcium was determined by diluting the serum into 0.1% lanthum chloride and measuring the absorbance on an atomic absorption spectrophotometer (Perkin Elmer Model 3110, Shelton, Conn.).

Sprague-Dawley rats [2] = test: Bone calcium mobilization (serum calcium) in vitamin D-deficient rats; format: in vivo, rat; details: for bone calcium mobilization (serum calcium): rats on 0.02% Ca diet
Procedure: (§1) Male, weanling Sprague-Dawley rats were placed on Diet 11 (0.47% Ca) diet+AEK for one week followed by Diet 11 (0.02% Ca)+AEK for 3 weeks. The rats were then switched to a diet containing 0.47% Ca for one week followed by two weeks on a diet containing 0.02% Ca. Dose administration began during the last week on 0.02% calcium diet. Four consecutive ip doses were given approximately 24 hours apart. Twenty-four hours after the last dose, blood was collected from the severed neck and the concentration of serum calcium determined as a measure of bone calcium mobilization. The first 10 cm of the intestine was also collected for intestinal calcium transport analysis using the everted gut sac method.

[3] = system: Human promyelocytic leukemia (HL60) cells; test: HL-60 differentiation (nitro blue tetrazolium reduction); format: cell-based; details: FIG. 2; for pEC50: HL60 cells, 4 days, NBT reduction
Procedure: The study drugs were dissolved in ethanol and the concentrations determined using UV spectrophotometry. Serial dilutions were prepared so that a range of drug concentrations could be tested without changing the final concentration of ethanol (≦0.2%) present in the cell cultures.
Human promyelocytic leukemia (HL60) cells were grown in RPMI-1640 medium containing 10% fetal bovine serum. The cells were incubated at 37° C. in the presence of 5% CO2.
HL60 cells were plated at 1.2×10^5 cells/ml. Eighteen hours after plating, cells in duplicate were treated with drug. Four days later, the cells were harvested and a nitro blue tetrazolium reduction assay was performed (Collins et al., 1979; J. Exp. Med. 149:969-974). The percentage of differentiated cells was determined by counting a total of 200 cells and recording the number that contained intracellular black-blue formazan deposits. Verification of differentiation to monocytic cells was determined by measuring phagocytic activity (data not shown).

Sprague-Dawley rats [4] = test: Intestinal calcium transport (everted gut sac method) in vitamin D-deficient rats; format: in vivo, rat; details: for intestinal calcium transport: everted gut sac
Procedure: as §1

[5] = system: 24-hydroxylase (24Ohase) gene promoter in ROS 17/2.8 (bone) cells; test: In vitro transcription assay (24-hydroxylase promoter luciferase reporter); format: cell-based; details: ROS 17/2.8 cells, 16 h, FIG. 3, read-out: EC50, transcriptional activity in bone cells
Procedure: Transcription activity was measured in ROS 17/2.8 (bone) cells that were stably transfected with a 24-hydroxylase (24Ohase) gene promoter upstream of a luciferase reporter gene (Arbour et al., 1998). Cells were given a range of doses. Sixteen hours after dosing the cells were harvested and luciferase activities were measured using a luminometer.
RLU=relative luciferase units.

[6] = molecular target: T1, full-length recombinant rat vitamin D receptor (Rattus norvegicus, UniProt P13053); test: Vitamin D receptor binding, competition with [3H]-1,25(OH)2D3; details: FIG. 1
T1 construct: Full-length recombinant rat receptor was expressed in E. coli; histidine tag (C); made in house; host or cells: E. coli BL21 (DE3) Codon Plus RIL
T1 sequence (P13053 1-423): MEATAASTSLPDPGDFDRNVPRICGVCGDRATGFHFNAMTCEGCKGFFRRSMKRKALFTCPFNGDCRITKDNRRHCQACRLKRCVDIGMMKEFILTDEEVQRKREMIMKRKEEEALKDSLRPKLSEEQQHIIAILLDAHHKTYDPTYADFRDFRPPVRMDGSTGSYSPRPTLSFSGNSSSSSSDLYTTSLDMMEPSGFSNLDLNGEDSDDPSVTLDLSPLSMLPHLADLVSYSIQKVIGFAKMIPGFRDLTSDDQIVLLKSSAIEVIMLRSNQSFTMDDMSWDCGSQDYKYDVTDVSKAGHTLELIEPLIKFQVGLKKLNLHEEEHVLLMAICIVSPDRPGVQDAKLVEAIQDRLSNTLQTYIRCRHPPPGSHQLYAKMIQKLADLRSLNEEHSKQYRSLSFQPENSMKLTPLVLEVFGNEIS
Procedure: Full-length recombinant rat receptor was expressed in E. coli BL21 (DE3) Codon Plus RIL cells and purified to homogeneity using two different column chromatography systems. The first system was a nickel affinity resin that utilizes the C-terminal histidine tag on this protein. The protein that was eluted from this resin was further purified using ion exchange chromatography (S-Sepharose Fast Flow). Aliquots of the purified protein were quick frozen in liquid nitrogen and stored at −80° C. until use. For use in binding assays, the protein was diluted in TEDK50 (50 mM Tris, 1.5 mM EDTA, pH7.4, 5 mM DTT, 150 mM KCl) with 0.1% Chaps detergent. The receptor protein and ligand concentration were optimized such that no more than 20% of the added radiolabeled ligand was bound to the receptor.
Radiolabeled and unlabeled ligands were added to 100 mcl of the diluted protein at a final ethanol concentration of ≦10%, mixed and incubated overnight on ice to reach binding equilibrium. The following day, 100 mcl of hydroxylapatite slurry (50%) was added to each tube and mixed at 10-minute intervals for 30 minutes. The hydroxylapaptite was collected by centrifugation and then washed three times with Tris-EDTA buffer (50 mM Tris, 1.5 mM EDTA, pH 7.4) containing 0.5% Titron X-100. […] Total binding was determined from the tubes containing only radiolabeled ligand.

SMILES: C=C1/C(=C\C=C2/CCC[C@]3(C)[C@@H]([C@H](C)CCCC(C)(C)O)CC[C@@H]23)C[C@@H](O)C[C@@H]1O [1,25(OH)2D3, 1α,25-dihydroxyvitamin D3, reference compound]
- PTH suppression (Sprague-Dawley rats [1]; 100 pmol/day ip, 4 consecutive days): 100%
- bone calcium mobilization (serum calcium) (Sprague-Dawley rats [2]; all dosages tested): increased serum calcium levels
- pEC50 [3]: 8.44
- intestinal calcium transport (Sprague-Dawley rats [4]; 260 pmol/day ip): promotes a significant increase
- pEC50 [5]: 9.54

SMILES: CC(C)C1CCC2C(=CC=C3CC(O)C(C)C(O)C3)CCCC21C (stereo not drawn) [2α-methylP, 2α-methyl-19-nor-1α-hydroxy-homopregnacalciferol]
- PTH suppression (Sprague-Dawley rats [1]; 500 pmol/day ip, 7 consecutive days): about 20%
- PTH suppression (Sprague-Dawley rats [1]; 1500 pmol/day ip, 7 consecutive days): about 20%
- PTH suppression (Sprague-Dawley rats [1]; 4500 pmol/day ip, 7 consecutive days): about 60%
- PTH suppression compared to 1,25(OH)2D3 (in words) (Sprague-Dawley rats [1]; FIG. 6): not as potently as 1,25(OH)2D3
- bone calcium mobilization (serum calcium) (Sprague-Dawley rats [2]; 87 pmol/day ip, 4 consecutive days): did not result in mobilization of bone calcium
- bone calcium mobilization (serum calcium) (Sprague-Dawley rats [2]; 260 pmol/day ip, 4 consecutive days): without any substantial effect
- bone calcium mobilization (serum calcium) (Sprague-Dawley rats [2]; 780 pmol/day ip, 4 consecutive days): without any substantial effect
- bone calcium mobilization (serum calcium) (Sprague-Dawley rats [2]; 2340 pmol/day ip, 4 consecutive days): without any substantial effect
- bone calcium mobilization activity compared to 1,25(OH)2D3 (in words) (Sprague-Dawley rats [2]; overall, FIG. 4): very little bone calcium mobilization activity
- VDR binding compared to 1,25-(OH)2D3 (in words) [6]: bound equally well
- pKi ([6]; full-length recombinant rat VDR): 9.03
- HL-60 cell differentiation potency compared to 1,25(OH)2D3 (in words) [3]: almost as potent as 1,25(OH)2D3
- pEC50 ([3]; Homo sapiens, HL-60, 96 h): 7.42
- intestinal calcium transport (Sprague-Dawley rats [4]; 87 pmol/day ip): does not promote intestinal calcium transport
- intestinal calcium transport (Sprague-Dawley rats [4]; 260 pmol/day ip): does not promote intestinal calcium transport
- intestinal calcium transport (Sprague-Dawley rats [4]; 780 pmol/day ip): does not promote intestinal calcium transport
- intestinal calcium transport (Sprague-Dawley rats [4]; 2340 pmol/day ip): does not promote intestinal calcium transport
- intestinal calcium transport activity compared to 1,25(OH)2D3 (in words) (Sprague-Dawley rats [4]; overall, FIG. 5): very little activity
- pEC50 [5]: 8.48
